Reference: ChEMBL document CHEMBL1201862, “PubChem BioAssay data set” (2004)
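Growth conditions: 96-well plates. Treatment: test compound, 48 hours, 5 concentrations. Analysis: linear interpolation between bracketing concentrations; unreached endpoints set to highest concentration. The concentration for 50% growth inhibition is given as GI50.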 Activity calls are given as the source filed them. No stated cut-off is given here; in the data, active = GI50 up to about 1.1 µM and inactive = higher.

Legend:
Test in all cases: NCI anticancer screen, dose series, 48 h
[1] = test system: BT-549
[2] = test system: CAKI-1
[3] = test system: COLO 205
[4] = test system: DU-145
[5] = test system: HCC 2998
[6] = test system: HOP-62
[7] = test system: K562
[8] = test system: LOX IMVI
[9] = test system: MDA-MB-231
[10] = test system: MDA-MB-435
[11] = test system: NCI-H226
[12] = test system: NCI/ADR-RES
[13] = test system: OVCAR-5
[14] = test system: RXF 393
[15] = test system: SK-MEL-2
[16] = test system: SNB-19
[17] = test system: SR
[18] = test system: T47D
[19] = test system: U-251
[20] = test system: UACC-62

Measured: GI50

COc1ccc(Cc2nc3cc(C(F)(F)F)ccc3n2C[C@@H]2CCCN3CCCCC23)cc1 (stereo not given in full)
inactive: [1] 13.8 µM | [2] 12.6 µM | [3] 5.36 µM | [4] 11 µM | [5] 2 µM | [6] 8.73 µM | [7] 13.7 µM | [8] 10.5 µM | [9] 11 µM | [10] 12.2 µM | [11] 18.1 µM | [12] 14.2 µM | [13] 13.7 µM | [14] 5.4 µM | [15] 15.6 µM | [16] 13.4 µM | [17] 3.93 µM | [18] 6.04 µM | [19] 13.2 µM | [20] 5.69 µM

C[C@@H](c1ccccc1)N1CN(C(=O)OCc2ccccc2)C(C)(C)CC1=O
inactive: [1] > 100 µM | [2] > 100 µM | [3] > 100 µM | [4] > 100 µM | [5] > 100 µM | [6] > 100 µM | [7] > 100 µM | [8] > 100 µM | [9] > 100 µM | [10] > 100 µM | [11] > 100 µM | [12] > 100 µM | [13] > 100 µM | [14] 15.5 µM | [15] > 100 µM | [16] > 100 µM | [17] 86.3 µM | [18] 50.6 µM | [19] > 100 µM | [20] > 100 µM

CCOC(=O)NC(NNc1ccc([N+](=O)[O-])cc1[N+](=O)[O-])(C(F)(F)F)C(F)(F)F
inactive: [1] 25.5 µM | [2] 33 µM | [3] 16.1 µM | [4] 40.3 µM | [5] 23.3 µM | [6] 32.9 µM | [7] 25.1 µM | [8] 60.1 µM | [9] 15.8 µM | [10] 42.6 µM | [11] 36 µM | [12] 33.3 µM | [13] 46 µM | [14] 27.8 µM | [15] 47 µM | [16] 35.2 µM | [17] 5.79 µM | [18] 35.1 µM | [19] 22 µM | [20] 74.5 µM

CCOS(=O)(=O)c1ccc(-c2c3nc(c(-c4ccc(S(=O)(=O)OCC)cc4)c4ccc([nH]4)c(-c4ccc(S(=O)(=O)OCC)cc4)c4nc(c(-c5ccc(S(=O)(=O)OCC)cc5)c5ccc2[nH]5)C=C4)C=C3)cc1
inactive: [1] > 31.6 µM | [2] > 31.6 µM | [3] > 31.6 µM | [4] > 31.6 µM | [5] > 31.6 µM | [6] > 10 µM | [7] > 10 µM | [8] > 10 µM | [9] > 31.6 µM | [10] > 31.6 µM | [11] 18.3 µM | [12] > 31.6 µM | [13] > 31.6 µM | [14] 17.2 µM | [15] > 31.6 µM | [16] > 31.6 µM | [17] > 31.6 µM | [18] > 31.6 µM | [19] > 31.6 µM | [20] > 31.6 µM
